{
  "source": "patent US8642341B2",
  "about": "“Materials and methods for gene mediated therapy of psychiatric disorders” (Cornell University, priority 2007, dated 2014)",
  "key": {"[1]": {"tested_on": "mice", "test": "forced swim test (FST)", "type": "in vivo, mouse", "conditions": "mice injected with control vector or no virus", "from_the_text": "(§1) Two mouse groups (n=10) received bilateral nucleus accumbens injections of AAV-p11-siRNA or control vector. The mouse groups are referenced herein as the “knockdown group” or “control” respectively. Behavioral testing began 6 weeks later, when expression from AAV vectors usually peaks. Behavioral testing included mouse tail suspension test (TST), open filed test, and forced swim test (FST).\n(§2) Knockdown and control groups of mice were transfected with AAV-p11-siRNA or control AAV vector, as described in Example 1. An additional control group was not transfected with any virus. The mice were subsequently treated with the antidepressant imipramine.\n(§3) The AAV plasmid shown in FIGS. 2 and 3 was used to generate a virus vector, which expresses the p11 gene product and which has the same AAV2 backbone described in Example 1. The resulting virus vector (“AAV-p11,” which is SEQ ID NO: 3) was injected into the nucleus accumbens of normal adult mice.\n(§4) Three groups of p11 knockdown mice (as in Example 1) were transfected with no virus, control virus vector, and the AAV-p11 virus vector of Example 3, respectively. Each knockdown transfectant group was compared to a wild-type counterpart group, which was also transfected with no virus, control virus vector, or AAV-p11. All virus transfections involved bilateral injection to the nucleus accumbens."}, "[2]": {"tested_on": "mice", "test": "mouse tail suspension test (TST)", "type": "in vivo", "conditions": "mice injected with control vector or no virus", "from_the_text": "as §1, §2, §3, §4"}},
  "data": [
    {"smiles": "CN(C)CCCN1c2ccccc2CCc2ccccc21", "note": "[imipramine]", "values": [
      {"measurement": "immobility on the FST after imipramine", "setting": "[1]", "value": "decreased immobility"},
      {"measurement": "immobility on the TST after imipramine", "setting": "[2]", "value": "decreased immobility"}
    ]}
  ]
}
